This is an account of results in ChEMBL document CHEMBL5131527, “Novel BTK Inhibitors for Treating Autoimmune Disorders and Cancer” (ACS Med Chem Lett, 2022).

Each structure is given as a SMILES string.

The target of the assay is Tyrosine-protein kinase BTK (Homo sapiens, UniProt Q06187). Briefly: Inhibition of BTK (unknown origin) using fluorescein-labeled polyGAT peptide as substrate incubated for 75 min in presence of ATP by time resolved fluorescence method.
Chain of Tyrosine-protein kinase BTK (Q06187 whole entry): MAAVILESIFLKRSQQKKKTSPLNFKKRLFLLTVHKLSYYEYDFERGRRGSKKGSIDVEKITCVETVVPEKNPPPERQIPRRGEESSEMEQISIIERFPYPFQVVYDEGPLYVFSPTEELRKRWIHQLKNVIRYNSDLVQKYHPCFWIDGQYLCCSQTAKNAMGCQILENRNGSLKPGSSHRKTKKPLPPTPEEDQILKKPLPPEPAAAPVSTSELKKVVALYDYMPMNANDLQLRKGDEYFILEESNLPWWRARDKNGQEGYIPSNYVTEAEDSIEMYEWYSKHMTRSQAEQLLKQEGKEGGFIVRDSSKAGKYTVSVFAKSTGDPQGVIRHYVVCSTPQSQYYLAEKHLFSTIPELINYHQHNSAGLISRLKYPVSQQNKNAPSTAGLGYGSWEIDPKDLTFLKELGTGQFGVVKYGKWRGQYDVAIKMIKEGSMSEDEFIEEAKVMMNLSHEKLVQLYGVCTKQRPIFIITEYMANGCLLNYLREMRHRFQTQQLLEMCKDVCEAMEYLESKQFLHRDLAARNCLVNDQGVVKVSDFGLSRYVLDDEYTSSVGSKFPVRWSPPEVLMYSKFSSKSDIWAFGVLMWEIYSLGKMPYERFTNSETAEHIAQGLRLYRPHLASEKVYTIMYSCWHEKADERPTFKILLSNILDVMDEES
Turning to `C=CC(=O)N1CCN(c2cncnc2-c2ccc(CNC(=O)c3nnn(C(C)(C)C)n3)c(C)c2)CC1`, the IC50 (commonly the concentration that inhibits the measured activity by half) was not above 1 nM.
Next, `C=CC(=O)N(C)C1CCN(c2cncnc2-c2ccc(CNC(=O)c3cn(C(C)(C)C)nn3)c(C)c2)C1` (stereo unspecified): not above 1 nM; `C=CC(=O)N(C)CC1CCN(c2cncnc2-c2ccc(CNC(=O)c3noc(C(C)(C)C)n3)c(C)c2)C1` (stereo unspecified): not above 1 nM.
For the compound `C=CC(=O)N1CCN(c2cnccc2-c2ccc(CNC(=O)c3noc(C(C)(C)C)n3)c(C)c2)CC1`, the IC50 is not above 1 nM.
For the compound `C=CC(=O)N(C)C1CCCN(c2cnccc2-c2ccc(CNC(=O)c3noc(C(C)(C)C)n3)c(C)c2)C1` (stereo unspecified), the half-inhibitory concentration (IC50) was not above 1 nM.
Turning to `C=CC(=O)N1CCN(c2cncnc2-c2ccc(CNC(=O)c3cn(C(C)(C)C)nn3)c(C)c2)CC1`, the IC50 was not above 1 nM.
